Experimental data from patent publication US20050222178A1, “Process” (priority 2002, published 2005).

Test: relative stability of the polymorphic forms of Compound A
Format: physicochemical

Row | Structure (SMILES) | stability relative to the other polymorph (at ambient temperatures, for example 15-20° C.) | stability relative to the other polymorph (at elevated temperatures, for example temperatures in excess of 70° C.)
1 | CC(C)(C)c1nnc([C@H]2O[C@@H](n3cnc4c(Nc5ccc(Cl)cc5F)ncnc43)[C@H](O)[C@@H]2O)o1 [Polymorph I, (2S,3S,4R,5R)-2-(5-tert-butyl-[1,3,4]-oxadiazol-2-yl)-5-[6-(4-chloro-2-fluorophenylamino)-9H-purin-9-yl]-tetrahydrofuran-3,4-diol] | enhanced stability over Polymorph II | 
2 | CC(C)(C)c1nnc([C@H]2O[C@@H](n3cnc4c(Nc5ccc(Cl)cc5F)ncnc43)[C@H](O)[C@@H]2O)o1 [Polymorph II, (2S,3S,4R,5R)-2-(5-tert-butyl-[1,3,4]-oxadiazol-2-yl)-5-[6-(4-chloro-2-fluorophenylamino)-9H-purin-9-yl]-tetrahydrofuran-3,4-diol] |  | enhanced stability over Polymorph I
